Assays:
Assay in all cases: relative viability (nuclei count vs DMSO), 5 days (fraction); higher = more cells survive
[1] = compound: CC1=C(C=CC(=C1)[N+](=O)[O-])NS(=O)(=O)C2=C(C=CC(=C2)Cl)Cl [FH535] + Cc1nc(Nc2ncc(C(=O)Nc3c(C)cccc3Cl)s2)cc(N2CCN(CCO)CC2)n1 [Dasatinib] (partner 0.075 µM)
In short: (§1)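 Cells from lung cancer lines were seeded into 1536-well plates and, one day later, dosed by pin tool. Treatments were either a single drug or a fixed dose of an anchor drug with five library-drug doses (not always all listed) in √10 steps. After 5 days, nuclei were stained in a one-step fixation (final 0.05% Triton X-100, 1% formaldehyde, 1 ug/ml Hoechst) and counted on 4× images, and relative viability is the treated-to-vehicle nuclei ratio, as the median of duplicate plates.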

[2] = compound: CC1=C(C=CC(=C1)[N+](=O)[O-])NS(=O)(=O)C2=C(C=CC(=C2)Cl)Cl [FH535] + NC(=O)Nc1cc(-c2cccc(F)c2)sc1C(=O)N[C@H]1CCCNC1 [AZD7762] (partner 0.2 µM)
In short: as §1

[3] = compound: CC1=C(C=CC(=C1)[N+](=O)[O-])NS(=O)(=O)C2=C(C=CC(=C2)Cl)Cl [FH535] + Cc1cc(Nc2cc(N3CCN(C)CC3)nc(Sc3ccc(NC(=O)C4CC4)cc3)n2)n[nH]1 [Tozasertib] (partner 0.1 µM)
In short: as §1

[4] = compound: CC1=C(C=CC(=C1)[N+](=O)[O-])NS(=O)(=O)C2=C(C=CC(=C2)Cl)Cl [FH535] + N=C(N)NC(=N)NCCc1ccccc1 [Phenformin] (partner 250 µM)
In short: as §1

[5] = compound: CC1=C(C=CC(=C1)[N+](=O)[O-])NS(=O)(=O)C2=C(C=CC(=C2)Cl)Cl [FH535] + Nc1nc2[nH]cc(CCc3ccc(C(=O)N[C@@H](CCC(=O)O)C(=O)O)cc3)c2c(=O)[nH]1 [Pemetrexed] (partner 0.2 µM)
In short: as §1

[6] = compound: CC1=C(C=CC(=C1)[N+](=O)[O-])NS(=O)(=O)C2=C(C=CC(=C2)Cl)Cl [FH535] + COc1cccc2cc(-c3nc([C@H]4CC[C@H](C(=O)O)CC4)n4ncnc(N)c34)[nH]c12 [OSI-027] (partner 0.5 µM)
In short: as §1

[7] = compound: CC1=C(C=CC(=C1)[N+](=O)[O-])NS(=O)(=O)C2=C(C=CC(=C2)Cl)Cl [FH535] + CC(=O)c1c(C)c2cnc(Nc3ccc(N4CCNCC4)cn3)nc2n(C2CCCC2)c1=O [Palbociclib] (partner 0.5 µM)
In short: as §1

[8] = compound: CC1=C(C=CC(=C1)[N+](=O)[O-])NS(=O)(=O)C2=C(C=CC(=C2)Cl)Cl [FH535] + CC(=O)Nc1cccc(-n2c(=O)n(C3CC3)c(=O)c3c(Nc4ccc(I)cc4F)n(C)c(=O)c(C)c32)c1 [Trametinib] (partner 0.02 µM)
In short: as §1

[9] = compound: CC1=C(C=CC(=C1)[N+](=O)[O-])NS(=O)(=O)C2=C(C=CC(=C2)Cl)Cl [FH535] + CCNC(=O)c1noc(-c2cc(C(C)C)c(O)cc2O)c1-c1ccc(CN2CCOCC2)cc1 [Luminespib] (partner 0.01 µM)
In short: as §1

[10] = compound: CC1=C(C=CC(=C1)[N+](=O)[O-])NS(=O)(=O)C2=C(C=CC(=C2)Cl)Cl [FH535] + O=C(c1cc(Cc2n[nH]c(=O)c3ccccc23)ccc1F)N1CCN(C(=O)C2CC2)CC1 [Olaparib] (partner 8 µM)
In short: as §1

[11] = compound: CC1=C(C=CC(=C1)[N+](=O)[O-])NS(=O)(=O)C2=C(C=CC(=C2)Cl)Cl [FH535] + Nc1ncn([C@H]2C[C@H](O)[C@@H](CO)O2)c(=O)n1 [Decitabine] (partner 2 µM)
In short: as §1

[12] = compound: CC1=C(C=CC(=C1)[N+](=O)[O-])NS(=O)(=O)C2=C(C=CC(=C2)Cl)Cl [FH535] + O=C(CCCCCCC(=O)Nc1ccccc1)NO [Vorinostat] (partner 1 µM)
In short: as §1

[13] = compound: CC1=C(C=CC(=C1)[N+](=O)[O-])NS(=O)(=O)C2=C(C=CC(=C2)Cl)Cl [FH535]
In short: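 Following overnight incubation at 37 °C, lung cancer cell lines in 1536-well plates were pinned with five library-drug doses (not always all listed) in √10 steps on vehicle-anchored plates. The cells then spent 5 days without medium change before a combined fix, permeabilisation and Hoechst stain, 4× imaging and MetaXpress nuclear counts. Viability is the treated-to-vehicle ratio of nuclei, taken as the median across plates. Only plates with control CV below 25% and at least one doubling passed.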

Cell Line: NCI-H522
- relative viability ([1]; first compound 0.04 µM): 0.882
- relative viability ([1]; first compound 0.1265 µM): 0.862
- relative viability ([1]; first compound 0.4 µM): 0.827
- relative viability ([1]; first compound 1.265 µM): 0.979
- relative viability ([2]; first compound 0.04 µM): 0.717
- relative viability ([2]; first compound 0.1265 µM): 0.947
- relative viability ([2]; first compound 0.4 µM): 0.688
- relative viability ([2]; first compound 1.265 µM): 0.864
- relative viability ([3]; first compound 0.04 µM): 0.529
- relative viability ([3]; first compound 0.1265 µM): 0.502
- relative viability ([3]; first compound 0.4 µM): 0.601
- relative viability ([3]; first compound 1.265 µM): 0.534
- relative viability ([4]; first compound 0.04 µM): 0.591
- relative viability ([4]; first compound 0.1265 µM): 0.575
- relative viability ([4]; first compound 0.4 µM): 0.621
- relative viability ([4]; first compound 1.265 µM): 0.62
- relative viability ([5]; first compound 0.04 µM): 0.847
- relative viability ([5]; first compound 0.1265 µM): 1.01
- relative viability ([5]; first compound 0.4 µM): 0.994
- relative viability ([5]; first compound 1.265 µM): 1.08
- relative viability ([6]; first compound 0.04 µM): 0.7
- relative viability ([6]; first compound 0.1265 µM): 0.767
- relative viability ([6]; first compound 0.4 µM): 0.734
- relative viability ([6]; first compound 1.265 µM): 0.636
- relative viability ([7]; first compound 0.04 µM): 0.984
- relative viability ([7]; first compound 0.1265 µM): 0.936
- relative viability ([7]; first compound 0.4 µM): 0.945
- relative viability ([7]; first compound 1.265 µM): 0.701
- relative viability ([8]; first compound 0.04 µM): 0.731
- relative viability ([8]; first compound 0.1265 µM): 0.968
- relative viability ([8]; first compound 0.4 µM): 0.804
- relative viability ([8]; first compound 1.265 µM): 0.622
- relative viability ([9]; first compound 0.04 µM): 1.29
- relative viability ([9]; first compound 0.1265 µM): 1.17
- relative viability ([9]; first compound 0.4 µM): 1.16
- relative viability ([9]; first compound 1.265 µM): 0.996
- relative viability ([10]; first compound 0.04 µM): 0.686
- relative viability ([10]; first compound 0.1265 µM): 0.717
- relative viability ([10]; first compound 0.4 µM): 0.632
- relative viability ([10]; first compound 1.265 µM): 0.467
- relative viability ([11]; first compound 0.04 µM): 0.588
- relative viability ([11]; first compound 0.1265 µM): 0.697
- relative viability ([11]; first compound 0.4 µM): 0.712
- relative viability ([11]; first compound 1.265 µM): 0.698
- relative viability ([12]; first compound 0.04 µM): 0.855
- relative viability ([12]; first compound 0.1265 µM): 0.858
- relative viability ([12]; first compound 0.4 µM): 0.731
- relative viability ([12]; first compound 1.265 µM): 0.78
- relative viability ([13]; 0.04 µM): 0.875
- relative viability ([13]; 0.1265 µM): 0.894
- relative viability ([13]; 0.4 µM): 0.856
- relative viability ([13]; 1.265 µM): 0.825

Reference: the supplement of paper PMC10307832
